From paper PMC11157767 (Molecular Cancer, 2024)

Tested on: TFG-MET allograft tumors
Assay: RNA-sequencing, differential expression and GSEA of TFG-MET allograft tumors
Format: in vivo, mouse
Conditions: RNA-sequencing of treated allograft tumors
Protocol: Error bars display standard error of mean, statistical significance was determined using t-test analysis. (****;p<0.0001, ***;p<0.001, **;p<0.01, *;p<0.05). […] Each dot represents an individual replicate. Error bars display standard error of the mean.
Each dot represents one gene.

C[C@@H](Oc1cc(-c2cnn(C3CCNCC3)c2)cnc1N)c1c(Cl)ccc(F)c1Cl [Crizotinib]
expression of Mapk signature genes in tumors: more heterogenous expression
